Assay results from patent EP0642351B1, “NEW PHARMACEUTICAL USES OF KRILL ENZYMES” (PHAIRSON MEDICAL, INC., priority 1992, dated 1993).
Where two headings read alike, the source gives them in different places.

Columns and labels:
[1] = test system: cell linjes, HIV-I infected to 40-60%; test: Example 39 - Cell viability (tox.) in HIV-contaminated cell lines, in vitro; assay type: cell-based
Experimental: (§1) This study was carried out at the Swedish National Bacterological Laboratory (SBL). Multi-Protein was compared to AZT and Foscarnet. All preparations were tested at dilutions from undiluted to 10^-5 (highest concentration for Multi-Protein was 5 mg/ml). The preparations were added to the cell linjes, HIV-I infected to 40-60%, under identical and standardized conditions.
(§2) Control: 50% infected cells. Cell toxicity and percentage of infected cells measured by immunofluorescence.
(§3) Control: 50% infected cells. Cell toxicity and percentage of infected cells measured by immanofluorescence.

[2] = as above; assay type: cell-based
Experimental: as §1, §2, §3

[3] = test system: primary and secondary liver cancer; settings: phase II study, Japan; T. Taguchi et al; cited from earlier work
Yoshida Sarcoma = settings: cited from earlier work
[4] = test system: mice with P388 murine leukemia; test: Toxicity on mice with s.c. implanted P388 murine leukemia, i.p. daily during 9 consecutive days; assay type: in vivo; settings: 9 days
Experimental: It may be worth mentioning that the highest dose of PHIM (20 mg/kg) is far higher than any of the curing doses used in any of the clinical examples which have been reported earlier in this description.

SMILES: Cc1cn([C@H]2C[C@H](N=[N+]=[N-])[C@@H](CO)O2)c(=O)[nH]c1=O [AZT]
- effect on the cells in the cultures [1]: all cells in the cultures were attacked and killed
- viability [2]: 100%

SMILES: COc1cccc2c1C(=O)c1c(O)c3c(c(O)c1C2=O)C[C@@](O)(C(=O)CO)C[C@@H]3O[C@H]1C[C@H](N)[C@H](O)[C@H](C)O1 [Adriamycin]
- response rate (CR and PR) [3]: 9.5%

SMILES: N.N.[Cl][Pt][Cl] [Cisplatin]
- tumour cells not killed (Yoshida Sarcoma; cells removed from the tumour and cultured): 53%

SMILES: COc1cccc2c1C(=O)c1c(O)c3c(c(O)c1C2=O)C[C@@](O)(C(=O)CO)C[C@@H]3O[C@H]1C[C@H](N)[C@H](O)[C@H](C)O1 [DOX, doxorubicin]
- Toxic death ([4]; Dose 1.25 mg/kg i.p. daily): 0/6
- Toxic death ([4]; Dose 2.5 mg/kg i.p. daily): 6/6
- Body weight change ([4]; Dose 5 mg/kg i.p. daily): -2.3 g
- Toxic death ([4]; Dose 5 mg/kg i.p. daily): 6/6

SMILES: O=C(O)P(=O)(O)O [Foscarnet]
- effect on the cells in the cultures ([1]; at low dilutions): all cells in the cultures were attacked and killed
- viability ([2]; Trial 1, moi 0.4, Multi-Protein: deformed cells, read-out: Cell viability (tox.)): 100%

SMILES: CO[C@@]12[C@H](COC(N)=O)C3=C(C(=O)C(C)=C(N)C3=O)N1C[C@@H]1N[C@@H]12 [Mitomycin C]
- side effect profile (Yoshida Sarcoma; 0.5 mg/kg as well as lower doses): loss of body weight, hair loss, decreased leucocytes and chronic diarrhoea
- effect on Yoshida Sarcoma resistant to Mitomycin C (Yoshida Sarcoma; 0.5 mg/kg or even higher doses): no effects could be detected
- efficacy calculated as 30 days of survival of the rats (Yoshida Sarcoma; non-resistant Yoshida Sarcoma, doses up to 0.5 mg/kg): ~100%
- response rate (CR and PR) [3]: 20%
